Assay results from patent publication US12030878B2 (BRISTOL-MYERS SQUIBB COMPANY, priority 2017, dated 2024).

How the values were obtained:
Assay type in all cases: cell-based
human TLR7 = target: T1, human TLR7 (Homo sapiens, UniProt Q9NYK1); experiment: TLR7 inhibition reporter assay (HEK-Blue SEAP); details: HEK-Blue cells overexpressing human TLR7, stimulated with gardiquimod 7.5 μM, 22 hour incubation
T1 construct: host or cells: HEK-Blue cells
T1 sequence (Q9NYK1 27-1049): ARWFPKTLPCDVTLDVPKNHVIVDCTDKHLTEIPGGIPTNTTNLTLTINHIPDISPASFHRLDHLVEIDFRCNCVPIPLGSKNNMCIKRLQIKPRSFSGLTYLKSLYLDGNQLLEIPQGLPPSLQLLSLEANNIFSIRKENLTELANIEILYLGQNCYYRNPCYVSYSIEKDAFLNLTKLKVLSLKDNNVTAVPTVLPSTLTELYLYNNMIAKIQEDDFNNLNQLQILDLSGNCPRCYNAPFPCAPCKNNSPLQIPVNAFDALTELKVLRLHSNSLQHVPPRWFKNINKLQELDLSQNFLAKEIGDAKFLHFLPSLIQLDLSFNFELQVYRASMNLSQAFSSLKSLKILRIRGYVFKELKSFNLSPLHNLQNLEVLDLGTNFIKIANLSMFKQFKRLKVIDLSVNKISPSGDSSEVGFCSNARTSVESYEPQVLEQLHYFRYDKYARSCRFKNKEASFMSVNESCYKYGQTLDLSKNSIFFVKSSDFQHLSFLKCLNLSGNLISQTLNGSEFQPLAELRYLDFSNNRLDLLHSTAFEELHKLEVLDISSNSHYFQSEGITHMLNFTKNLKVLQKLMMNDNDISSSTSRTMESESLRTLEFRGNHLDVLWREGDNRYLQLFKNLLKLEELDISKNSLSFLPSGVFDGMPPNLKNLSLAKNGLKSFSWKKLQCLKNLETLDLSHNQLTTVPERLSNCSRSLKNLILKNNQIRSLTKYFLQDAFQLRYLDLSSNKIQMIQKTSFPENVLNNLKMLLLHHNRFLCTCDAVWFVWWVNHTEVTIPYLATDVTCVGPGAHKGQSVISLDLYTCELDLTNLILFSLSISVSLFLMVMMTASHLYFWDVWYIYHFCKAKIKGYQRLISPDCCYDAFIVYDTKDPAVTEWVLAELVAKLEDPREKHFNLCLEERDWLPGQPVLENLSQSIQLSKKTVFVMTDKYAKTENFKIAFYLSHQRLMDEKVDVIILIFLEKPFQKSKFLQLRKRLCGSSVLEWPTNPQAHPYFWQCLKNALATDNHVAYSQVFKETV
Method in brief: (§1)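 SEAP read-out via HEK-Blue Detection medium after 22 h at 37 °C; percent inhibition relative to agonist-plus-DMSO and known-inhibitor wells. Agonists: TLR7 gardiquimod 7.5 μM, TLR8 R848 15.9 μM, TLR9 ODN2006 5 nM. Dose range 0.05 nM–50 μM, 30 min compound pre-treatment at RT.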

human TLR9 = target: T2, human TLR9 (Homo sapiens, UniProt Q9NR96); experiment: TLR9 inhibition reporter assay (HEK-Blue SEAP); details: HEK-Blue cells overexpressing human TLR9, stimulated with ODN2006 5 nM, 22 hour incubation
T2 construct: host or cells: HEK-Blue cells
T2 sequence (Q9NR96 26-1032): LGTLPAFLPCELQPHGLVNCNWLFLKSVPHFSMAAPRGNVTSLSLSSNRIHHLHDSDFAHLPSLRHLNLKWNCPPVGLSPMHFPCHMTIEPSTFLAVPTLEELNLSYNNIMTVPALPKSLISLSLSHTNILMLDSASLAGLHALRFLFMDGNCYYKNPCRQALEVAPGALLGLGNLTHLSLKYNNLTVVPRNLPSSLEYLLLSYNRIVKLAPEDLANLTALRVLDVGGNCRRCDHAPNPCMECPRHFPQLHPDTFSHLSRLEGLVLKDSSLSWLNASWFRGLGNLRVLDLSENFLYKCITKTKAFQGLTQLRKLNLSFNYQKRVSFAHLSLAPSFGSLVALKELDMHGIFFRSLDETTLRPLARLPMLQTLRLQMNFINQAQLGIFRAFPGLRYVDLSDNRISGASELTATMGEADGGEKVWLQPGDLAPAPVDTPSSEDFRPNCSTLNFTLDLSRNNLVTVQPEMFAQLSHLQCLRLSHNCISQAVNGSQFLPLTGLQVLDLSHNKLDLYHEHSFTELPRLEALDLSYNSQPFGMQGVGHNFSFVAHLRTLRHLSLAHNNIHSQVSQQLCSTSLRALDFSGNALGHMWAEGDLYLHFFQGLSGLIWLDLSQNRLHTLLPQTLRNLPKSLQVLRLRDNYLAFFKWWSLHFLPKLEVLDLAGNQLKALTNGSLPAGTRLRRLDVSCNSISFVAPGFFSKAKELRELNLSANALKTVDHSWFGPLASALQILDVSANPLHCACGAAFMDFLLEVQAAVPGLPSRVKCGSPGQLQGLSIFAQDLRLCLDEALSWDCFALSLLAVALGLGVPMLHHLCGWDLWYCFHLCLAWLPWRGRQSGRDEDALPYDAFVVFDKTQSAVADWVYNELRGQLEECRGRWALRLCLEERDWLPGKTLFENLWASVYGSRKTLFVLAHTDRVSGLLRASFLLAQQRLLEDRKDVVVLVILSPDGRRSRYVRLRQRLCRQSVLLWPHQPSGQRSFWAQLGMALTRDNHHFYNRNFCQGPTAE
Method in brief: as §1

human TLR8 = target: T3, human TLR8 (Homo sapiens, UniProt Q9NR97); experiment: TLR8 inhibition reporter assay (HEK-Blue SEAP); details: HEK-Blue cells overexpressing human TLR8, stimulated with R848 15.9 μM, 22 hour incubation
T3 construct: host or cells: HEK-Blue cells
T3 sequence (Q9NR97 27-1041): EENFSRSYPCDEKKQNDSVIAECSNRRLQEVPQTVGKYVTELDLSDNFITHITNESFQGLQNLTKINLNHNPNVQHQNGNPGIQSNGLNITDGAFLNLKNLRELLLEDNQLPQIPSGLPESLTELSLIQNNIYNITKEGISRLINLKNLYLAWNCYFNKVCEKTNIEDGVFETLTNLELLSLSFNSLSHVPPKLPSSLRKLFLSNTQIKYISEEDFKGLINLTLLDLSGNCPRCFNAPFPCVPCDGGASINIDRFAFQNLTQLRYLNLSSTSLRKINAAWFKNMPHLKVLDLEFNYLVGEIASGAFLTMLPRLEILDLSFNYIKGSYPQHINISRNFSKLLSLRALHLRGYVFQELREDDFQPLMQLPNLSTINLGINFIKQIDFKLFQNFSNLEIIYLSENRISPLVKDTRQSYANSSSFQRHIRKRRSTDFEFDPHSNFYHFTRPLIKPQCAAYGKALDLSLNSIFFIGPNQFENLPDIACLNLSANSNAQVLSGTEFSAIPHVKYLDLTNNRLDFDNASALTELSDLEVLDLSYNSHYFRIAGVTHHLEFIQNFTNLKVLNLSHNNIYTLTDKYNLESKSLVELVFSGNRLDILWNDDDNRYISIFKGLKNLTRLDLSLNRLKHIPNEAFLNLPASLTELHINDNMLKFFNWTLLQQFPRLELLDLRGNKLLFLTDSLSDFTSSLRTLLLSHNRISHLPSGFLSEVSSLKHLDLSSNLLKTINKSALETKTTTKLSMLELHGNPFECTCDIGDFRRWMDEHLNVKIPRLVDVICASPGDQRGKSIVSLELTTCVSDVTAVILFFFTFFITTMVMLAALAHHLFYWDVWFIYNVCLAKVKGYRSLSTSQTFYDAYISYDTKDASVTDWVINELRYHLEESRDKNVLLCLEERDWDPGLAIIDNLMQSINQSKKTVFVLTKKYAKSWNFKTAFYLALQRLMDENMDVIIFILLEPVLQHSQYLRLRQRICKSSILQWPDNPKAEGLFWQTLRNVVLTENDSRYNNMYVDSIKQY
Method in brief: as §1

Structure (SMILES)	IC50 (human TLR7)	IC50 (human TLR9)	IC50 (human TLR8)
COc1ccc(-c2[nH]c3ccc(OCC4CCN(Cc5ccccc5)CC4)cc3c2C(C)C)cc1OC [Example 160, 5-((1-benzylpiperidin-4-yl)methoxy)-2-(3,4-dimethoxyphenyl)-3-isopropyl-1H-indole]	275 nM	7570 nM	128 nM
COc1ccc(-c2[nH]c3ccc(OCC(=O)NC4CCC(N)CC4)cc3c2C(C)C)cc1OC (stereo not drawn) [Example 131, N-(4-aminocyclohexyl)-2-((2-(3,4-dimethoxyphenyl)-3-isopropyl-1H-indol-5-yl)oxy) acetamide]	293 nM	908 nM	18.3 nM
Cc1cc(-c2[nH]c3ccc(OC4CCN(CCO)CC4)cc3c2C(C)C)cc(C)n1 [Example 70, 2-(4-((2-(2,6-dimethylpyridin-4-yl)-3-isopropyl-1H-indol-5-yl)oxy)piperidin-1-yl) ethan-1-ol]	9.6 nM	1040 nM	1.5 nM
Cc1cc(-c2[nH]c3ccc(OCc4ccncc4)cc3c2C(C)C)ccn1 [Example 174, 3-isopropyl-2-(2-methylpyridin-4-yl)-5-(pyridin-4-ylmethoxy)-1H-indole]	3590 nM	> 50000 nM	3020 nM
COCCN1CCC(COc2ccc3[nH]c(-c4cc(C)c(=O)n(C)c4)c(C(C)C)c3c2)CC1 [Example 74, 5-(3-isopropyl-5-((1-(2-methoxyethyl)piperidin-4-yl)methoxy)-1H-indol-2-yl)-1,3-dimethylpyridin-2(1H)-one]	20.7 nM	29200 nM	3.9 nM
Cc1cc(-c2[nH]c3ccc(OCC(=O)NCCC4CCCNC4)cc3c2C(C)C)ccn1 (stereo not drawn) [Example 146, 2-((3-isopropyl-2-(2-methylpyridin-4-yl)-1H-indol-5-yl)oxy)-N-(2-(piperidin-3-yl)ethyl)acetamide]	771 nM	937 nM	98.4 nM
COc1ccc(-c2[nH]c3ccc(O[C@H]4CCNC4)cc3c2C(C)C)cc1OC [Example 170, (S)-2-(3,4-dimethoxyphenyl)-3-isopropyl-5-(pyrrolidin-3-yloxy)-1H-indole]	83.9 nM	1080 nM	31.3 nM
Cc1cc(-c2[nH]c3ccc(OC4CCN(CC(=O)O)CC4)cc3c2C(C)C)cc(C)n1 [Example 197, 2-(4-((2-(2,6-dimethylpyridin-4-yl)-3-isopropyl-1H-indol-5-yl)oxy)piperidin-1-yl)acetic acid]	679 nM	25200 nM	462 nM
COc1ccc(-c2[nH]c3ccc(OCC(=O)N4CCNCC4)cc3c2C(C)C)cc1OC [Example 129, 2-((2-(3,4-dimethoxyphenyl)-3-isopropyl-1H-indol-5-yl)oxy)-1-(piperazin-1-yl)ethan-1-one]	57.9 nM	2610 nM	45.1 nM
Cc1cc(-c2[nH]c3ccc(OCCN4CCCC(F)C4)cc3c2C(C)C)cn2ncnc12 (stereo not drawn) [Example 4, 6-(5-(2-(3-fluoropiperidin-1-yl)ethoxy)-3-isopropyl-1H-indol-2-yl)-8-methyl-[1,2,4]triazolo[1,5-a]pyridine]	> 3130 nM	> 50000 nM	15.4 nM

Now those with a lower IC50 (human TLR7), led by results:

IC50 (human TLR7)	IC50 (human TLR9)	IC50 (human TLR8)	Structure (SMILES)
6.5 nM	16900 nM	2.9 nM	Cc1cc(-c2[nH]c3ccc(OC4CCCN(CC(=O)N(C)C)C4)cc3c2C(C)C)cn(C)c1=O (stereo not drawn) [Example 84, 2-(3-((2-(1,5-dimethyl-6-oxo-1,6-dihydropyridin-3-yl)-3-isopropyl-1H-indol-5-yl)oxy)piperidin-1-yl)-N,N-dimethylacetamide]
4.9 nM	317 nM	2.7 nM	Cc1cc(-c2[nH]c3ccc(OCC4CCN(C(C)C)CC4)cc3c2C(C)C)cc(C)n1 [Example 35, 2-(2,6-dimethylpyridin-4-yl)-3-isopropyl-5-((1-isopropylpiperidin-4-yl)methoxy)-1H-indole]
3.8 nM	359 nM	2.5 nM	Cc1cc(-c2[nH]c3ccc(OCC4CCN(CCO)CC4)cc3c2C(C)C)cc(C)n1 [Example 71, 2-(4-(((2-(2,6-dimethylpyridin-4-yl)-3-isopropyl-H-indol-5-yl)oxy)methyl)piperidin-1-yl)ethan-1-ol]
1 nM	31600 nM	5.1 nM	CNC(=O)CN1CCC(Oc2ccc3[nH]c(-c4cc(C)c5ncnn5c4)c(C(C)C)c3c2)CC1 [Example 114, 2-(4-((3-isopropyl-2-(8-methyl-[1,2,4]triazolo[1,5-a]pyridin-6-yl)-1H-indol-5-yl)oxy)piperidin-1-yl)-N-methylacetamide]
0.3 nM	1100 nM	3 nM	Cc1cc(-c2[nH]c3ccc(OCC4CCNCC4)cc3c2C(C)C)cn2ncnc12 [Example 12, 6-(3-isopropyl-5-(piperidin-4-ylmethoxy)-1H-indol-2-yl)-8-methyl-[1,2,4] triazolo[1,5-a]pyridine]
